Columns and labels:
Format in all cases: functional, cell-based
[1] = test system: 5637; assay: Cytotoxicity against human 5637 cells assessed as growth inhibition after 96 hrs by crystal violet staining assay; details: Homo sapiens, 5637, 96 h
[2] = Cytotoxicity against human LCLC-103H cells assessed as growth inhibition after 96 hrs by crystal violet staining assay
[3] = test system: DAN-G; assay: Cytotoxicity against human DAN-G cells assessed as growth inhibition after 96 hrs by crystal violet staining assay
[4] = test system: MCF7; assay: Cytotoxicity against human MCF7 cells assessed as growth inhibition after 96 hrs by crystal violet staining assay; details: MCF7, 96 h

Compound	IC50 [1] [µM]	IC50 [2] [µM]	IC50 [3] [µM]	IC50 [4] [µM]
N[C@@H](Cc1ccc(N(CCCl)CCCl)cc1)C(=O)O [MELPHALAN]	1.32	4		
O=C(N[C@H]1C[C@H](Oc2ccc(-c3ccccc3)cc2)C[C@@H]1O)C(c1ccccc1)c1ccccc1 (racemic)	12.5	13.1	17.5	10.3
O=C(O)CCCc1ccc(N(CCCl)CCCl)cc1 [CHLORAMBUCIL]		14.5	27.8	
O=C(N[C@@H]1C[C@H](Oc2ccc(-c3ccccc3)cc2)C[C@H]1O)C(c1ccccc1)c1ccccc1 (racemic)	12.2	12.3	13	8.91
O=C(CCC(=O)c1ccc(-c2ccccc2)cc1)N[C@@H]1C[C@H](OCc2ccccc2)C[C@H]1O (racemic)	> 20	> 20	> 20	16
O=C(CCC(=O)c1ccc(-c2ccccc2)cc1)N[C@H]1C[C@H](OCc2ccccc2)C[C@@H]1O (racemic)	20.4	> 20	> 20	14.2
O=C(CCCc1c[nH]c2ccccc12)N[C@@H]1C[C@H](Oc2ccc(-c3ccccc3)cc2)C[C@H]1O (racemic)	11.9	13.6	12.8	6.76

From ChEMBL document CHEMBL3132770, “4-Aminocyclopentane-1,3-diols as platforms for diversity: synthesis of a screening library” (Medchemcomm, 2014)
